We go through 52 compounds from patent publication US20230009608A1, “GRK2 INHIBITORS AND USES THEREOF” (Cygnal Therapeutics, Inc., priority 2020, published 2023).

A value given as a limit tells only on which side of the number the result lay.

Test [1] deals with T1, GRK2 (Homo sapiens, UniProt P25098).
T1 construct: purchased SignalChem A14-10G
T1 sequence (P25098 1-689): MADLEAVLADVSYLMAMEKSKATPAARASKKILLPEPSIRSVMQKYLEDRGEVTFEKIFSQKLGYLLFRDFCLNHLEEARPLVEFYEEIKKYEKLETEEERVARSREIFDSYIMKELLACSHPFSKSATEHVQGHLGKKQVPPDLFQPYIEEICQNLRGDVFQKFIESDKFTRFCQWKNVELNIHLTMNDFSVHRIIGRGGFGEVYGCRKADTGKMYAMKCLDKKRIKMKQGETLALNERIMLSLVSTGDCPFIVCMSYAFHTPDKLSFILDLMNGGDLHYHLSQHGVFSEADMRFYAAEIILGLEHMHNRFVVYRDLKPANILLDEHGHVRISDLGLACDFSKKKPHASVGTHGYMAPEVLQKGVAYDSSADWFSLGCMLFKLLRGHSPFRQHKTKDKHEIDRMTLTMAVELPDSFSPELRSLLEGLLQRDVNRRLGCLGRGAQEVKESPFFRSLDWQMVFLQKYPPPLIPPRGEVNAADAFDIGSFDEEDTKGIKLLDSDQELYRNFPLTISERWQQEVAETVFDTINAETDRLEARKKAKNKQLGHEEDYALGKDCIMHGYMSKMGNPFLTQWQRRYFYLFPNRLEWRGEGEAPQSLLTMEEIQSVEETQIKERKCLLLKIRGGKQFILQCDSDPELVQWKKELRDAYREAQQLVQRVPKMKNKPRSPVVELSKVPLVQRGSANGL
Kind of test: GRK2 Inhibition Assay (TR-FRET, Example 7). The format is biochemical. How it is done: Enzyme GRK2 (1 nM final concentration) was diluted in 25 mMv HEPES, 10 mM MgCl2, 2 mM DTT, 0.01% Tween-20, and 1 mM EGTA. Then the GRK2 mixture was added into ProxiPlate-384 white plate and pre-incubated for 30 min with test compounds at room temperature. ATP (7 μM final concentration) and Ulight TopoIIα (50 nM final concentration) were added into the assay plate to initiate the reaction and the mixture was incubated at room temperature for 90 min. Then, Eu anti-TopoIIα (0.12 nM final concentration), BSA (0.01% final concentration), and EDTA (11 mMv final concentration) in LANCE assay buffer were added into each well. After 60 min incubation time at room temperature, TR-FRET signal was measured by EnVision plate reader.
For orientation: TR-FRET usually uses a lanthanide donor and a delayed reading to cut background.

Test [2] deals with T1, GRK2. As to the kind of experiment: ADPGlo GRK2 Inhibition Assay (Example 8). The format is biochemical. The following applies: Enzyme Assay A, ADPGlo (Example 8); read-out: A: Enzymatic GRK2: IC50 (nM) (Example 8). In outline: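 GRK2 (15 nM 2× enzyme solution) was preincubated 15 min with compound, then reacted 180 min at room temperature with 2× mix of 20 μM ATP plus GRKtide in HEPES pH 7.5, MgCl2, Tween-20, DTT. ADP was detected by ADP-Glo luminescence. Percent inhibition was normalised to enzyme and no-enzyme controls, with dose-response curves from threefold dilutions starting at 100 μM.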
In general terms: ADP-Glo turns the ADP formed in a reaction into a luminescent signal.

Test [3] relates to PAXF1657 control empty vector cell line. Kind of test: 7-day proliferation assay, PAXF1657 control empty vector cell line (Example 9). The format is cell-based. The note with it: 168 h; Cell Line: PAXF1657 empty vector (EV) cell line; 7-day; read-out: C: 7-day proliferation assay: IC50 GeoMean. Summed up: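 Isogenic PAXF1657 pairs differing in GRK2 level (stable cDNA overexpression or CRISPR knockout, each with matched control) are seeded and allowed to attach overnight. Inhibitors span 30 μM-0.0002 μM in 0.3% DMSO for 3 plus 4 days at 37° C, 5% CO2, with a medium change between.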

The mark [4] stands for this setting: Enzyme Assay B, TR-FRET (Example 7), read-out: B: Enzymatic GRK2: IC50 (nM) (Example 7).

Consider `CNCCn1c(CNc2cccc(C(=O)NCc3c(F)cccc3F)c2)nnc1-c1ccncn1`, for which the IC50 on GRK2 [1] (setting [4]) came to 1400 nM.

Take `CN(C)CCCn1c(CNc2cccc(C(=O)NCc3c(F)cccc3F)c2)nnc1-c1ccncn1`: on GRK2 [1] (setting [4]), the IC50 was 170 nM.

For `CNCCCn1c(CNc2cccc(C(=O)NCc3c(F)cccc3F)c2)nnc1-c1ccncn1`, the IC50 on GRK2 [1] (setting [4]) worked out at 660 nM.

`O=C(NCc1c(F)cccc1F)c1cccc(NCc2nnc(-c3ccncn3)n2CCCO)c1`: the IC50 on GRK2 [1] (setting [4]) stood at 47 nM.

As for `CNc1cc(-c2nnc(CNc3cccc(C(=O)NCc4c(F)cccc4F)c3)n2C)ncn1`, at GRK2 [1] (setting [4]), the IC50 stood at 4400 nM.

Take `Cn1c(CNc2cccc(C(=O)NCc3ccc4c(c3)CCO4)c2)nnc1-c1ccncn1`: the IC50 was 16 nM at GRK2 [2] and 1670 nM in test [3].

Take `Cn1c(CNc2cccc(C(=O)NCc3cccc(F)c3F)c2)nnc1-c1ccncn1`: the IC50 is 16 nM at GRK2 [2] and over 10000 nM in test [3].

Consider `COc1cccc(CNC(=O)c2cccc(NCc3nnc(-c4ccncn4)n3C)c2)c1F`, for which the IC50 at GRK2 [2] is 10 nM; in test [3], over 10000 nM.

Take `COc1ccccc1CNC(=O)c1cccc(NCc2nnc(-c3ccncn3)n2C)c1`: the IC50 was 20 nM at GRK2 [2] and 1900 nM in test [3].

As for `CC(NC(=O)c1cccc(NCc2nnc(-c3ccncn3)n2C)c1)c1nccn1C` (stereo not drawn), the IC50 on GRK2 [2] was determined as 24 nM; in test [3], 591 nM.

For the compound `CCn1ncnc1CNC(=O)c1cccc(NCc2nnc(-c3ccncn3)n2C)c1`, the IC50 was 370 nM on GRK2 [2] and over 10000 nM in test [3].

`Cc1ncccc1CNC(=O)c1cccc(NCc2nnc(-c3ccncn3)n2C)c1`: the IC50 was determined as 16 nM at GRK2 [2] and 1490 nM in test [3].

As to `O=C(NCCc1cccc(OS(=O)(=O)F)c1)c1cccc(NCc2nnc(-c3ccncc3)[nH]2)c1`, the IC50 at GRK2 [1] is 210 nM.

With `O=C(NC1(c2ccccc2)CCOCC1)c1cccc(NCc2nnc(-c3ccncc3)[nH]2)c1`, the IC50 on GRK2 [1] (setting [4]) was determined as 330 nM.

As for `O=C(NC1(c2ccccc2)CCOCC1)c1cccc(NCc2nnc(-c3ccncc3)n2CCO)c1`, the IC50 at GRK2 [1] (setting [4]) worked out at 130 nM.

Turning to `Cn1c(CNc2cccc(C(=O)N[C@H]3CCOc4ccccc43)c2)nnc1-c1ccncc1Cl`, the IC50 on GRK2 [1] (setting [4]) came out at 170 nM.

`CN(Cc1cccnc1C(F)(F)F)C(=O)c1cccc(NCc2nnc(-c3ccncn3)n2C)c1`: the IC50 on GRK2 [1] (setting [4]) is over 10000 nM.

`CC(NC(=O)c1cccc(NCc2nnc(-c3ccncn3)n2C)c1)c1ccccn1` (stereo not drawn): the IC50 is 29 nM at GRK2 [2] and 522 nM in test [3].

For the compound `Cn1ccc(CNC(=O)c2cccc(NCc3nnc(-c4ccncn4)n3C)c2)n1`, the IC50 was determined as 60 nM at GRK2 [2] and 1290 nM in test [3].

For the compound `Cn1c(CNc2cccc(C(=O)NCc3cc(Cl)ccn3)c2)nnc1-c1ccncn1`, the IC50 at GRK2 [2] is 45 nM; in test [3], over 30000 nM.

On to `Cn1c(CNc2cccc(C(=O)NCc3cnccn3)c2)nnc1-c1ccncn1`, for which the IC50 on GRK2 [2] is 37 nM; in test [3], over 30000 nM.

For the compound `CC(NC(=O)c1cccc(NCc2nnc(-c3ccncn3)n2C)c1)c1cn[nH]c1` (stereo not drawn), the results for the IC50 (on GRK2 [2]; in test [3]) were 13 nM and 16800 nM, respectively.

As to `Cc1nc(C(C)NC(=O)c2cccc(NCc3nnc(-c4ccncn4)n3C)c2)no1` (stereo not drawn), the IC50 at GRK2 [2] was 67 nM; in test [3] it was over 30000 nM.

Consider `Cc1cc(CNC(=O)c2cccc(NCc3nnc(-c4ccncn4)n3C)c2)nn1C`, for which the IC50 at GRK2 [2] was 41 nM; in test [3], over 30000 nM.

With `Cn1c(CNc2cccc(C(=O)NCc3ccnnc3)c2)nnc1-c1ccncn1`, the IC50 at GRK2 [2] is 43 nM; in test [3], over 30000 nM.

`Cn1c(CNc2cccc(C(=O)NCc3cocn3)c2)nnc1-c1ccncn1`: the IC50 on GRK2 [2] is 27 nM; in test [3], over 30000 nM.

Consider `Cn1c(CNc2cccc(C(=O)NCc3cscn3)c2)nnc1-c1ccncn1`, for which the IC50 at GRK2 [2] is 13 nM; in test [3] it was over 30000 nM.

`Cn1c(CNc2cccc(C(=O)NCc3ccon3)c2)nnc1-c1ccncn1`: the IC50 on GRK2 [2] was 23 nM; in test [3] it was over 30000 nM.

With `Cn1c(CNc2cccc(C(=O)NCc3nc(C4CC4)no3)c2)nnc1-c1ccncn1`, the IC50 at GRK2 [2] turned out to be 27 nM; in test [3], 5750 nM.

As to `Cn1cc(-c2cc(CNC(=O)c3cccc(NCc4nnc(-c5ccncn5)n4C)c3)ccn2)cn1`, the IC50 on GRK2 [2] is 17 nM; in test [3], over 30000 nM.

Regarding `Cn1cc(CNC(=O)c2cccc(NCc3nnc(-c4ccncn4)n3C)c2)cn1`, the IC50 was found to be 36 nM on GRK2 [2] and 9770 nM in test [3].

With `CCc1cnccc1CNC(=O)c1cccc(NCc2nnc(-c3ccncn3)n2CCO)c1`, the IC50 at GRK2 [1] (setting [4]) was found to be 0.82 nM.

Consider `CCc1cnccc1CNC(=O)c1cccc(NCc2nnc(-c3ccncn3)n2CCCO)c1`, for which, on GRK2 [1] (setting [4]), the IC50 stood at 5.5 nM.

Consider `CCc1cnccc1CNC(=O)c1ccnc(NCc2nnc(-c3ccncn3)n2C)c1`, for which the IC50 on GRK2 [1] (setting [4]) was found to be 15 nM.

In the case of `Cn1c(CNc2cc(C(=O)NCc3cccc4c3OCC4)ccn2)nnc1-c1ccncn1`, the IC50 at GRK2 [1] (setting [4]) worked out at 12 nM.

As to `O=C(NC1(c2ccccc2)CCOCC1)c1cccc(NCc2nnc(-c3ccncn3)n2CCO)c1`, at GRK2 [1] (setting [4]), the IC50 amounted to 6.3 nM.

Turning to `COc1ncccc1CNC(=O)c1cccc(NCc2nnc(-c3ccncn3)n2CCO)c1`, the IC50 on GRK2 [1] (setting [4]) worked out at 2.4 nM.

Consider `CNCCCn1c(CNc2cccc(C(=O)NCc3cccnc3C(F)(F)F)c2)nnc1-c1ccncn1`, for which the IC50 at GRK2 [1] (setting [4]) amounted to 280 nM.

As for `COCCOc1ccc(CNC(=O)c2cccc(NCc3nnc(-c4ccncn4)n3C)c2)cc1`, the IC50 at GRK2 [2] was 20.4 nM; in test [3], over 14200 nM.

On to `C#Cc1cc(CNC(=O)c2cccc(NCc3nnc(-c4ccncc4)[nH]3)c2)cc(OS(=O)(=O)F)c1`, for which the IC50 on GRK2 [2] stood at 34.9 nM; in test [3] it was 10800 nM.

Take `C#Cc1ccc(OS(=O)(=O)F)cc1CNC(=O)c1cccc(NCc2nnc(-c3ccncc3)[nH]2)c1`: the IC50 at GRK2 [2] came to 28.4 nM; in test [3], 7440 nM.

Take `Cc1ccc2c(c1)OCC[C@H]2NC(=O)c1cccc(NCc2nnc(-c3ccncn3)n2C)c1`: the figures for the IC50 (on GRK2 [2]; in test [3]) were 9.99 nM and 648 nM, respectively.

`Cc1ccc2c(c1)OCC[C@@H]2NC(=O)c1cccc(NCc2nnc(-c3ccncn3)n2C)c1`: the IC50 on GRK2 [2] is over 1000 nM; in test [3] it was 2580 nM.

Regarding `Cc1cccnc1CNC(=O)c1cccc(NCc2nnc(-c3ccncn3)n2C)c1` [drawing 264], the figures for the IC50 (on GRK2 [2]; in test [3]) were 14 nM and 1610 nM, respectively.

For `Cn1c(CNc2cccc(C(=O)NCc3ccncc3Cl)c2)nnc1-c1ccncn1` [drawing 276], the results for the IC50 (on GRK2 [2]; in test [3]) were 9.1 nM and 4060 nM, respectively.

In the case of `CN1CCC(NC(=O)c2cccc(NCc3nnc(-c4ccncn4)n3C)c2)c2ccccc21` (stereo not drawn) [drawing 321], the IC50 at GRK2 [2] was determined as 37 nM; in test [3], 9340 nM.

Regarding `Cn1c(CNc2cccc(C(=O)NCc3ccnc(OCC(F)(F)F)c3)c2)nnc1-c1ccncn1` [drawing 339], the IC50 at GRK2 [2] worked out at 17 nM; in test [3], 3760 nM.

`C[C@H](NC(=O)c1cccc(NCc2nnc(-c3ccncn3)n2C)c1)c1cccnc1` [drawing 345]: the IC50 at GRK2 [2] is 420 nM; in test [3], over 8570 nM.

As to `Cn1c(CNc2cccc(C(=O)NCc3cccc4cccnc34)c2)nnc1-c1ccncn1` [drawing 359], the figures for the IC50 (at GRK2 [2]; in test [3]) were 61 nM and 3640 nM, respectively.

`COc1cccc(C(C)NC(=O)c2cccc(NCc3nnc(-c4ccncn4)n3C)c2)c1` (stereo not drawn) [drawing 381]: the IC50 was found to be 12 nM on GRK2 [2] and 377 nM in test [3].

As for `CC1Cc2cc(CNC(=O)c3cccc(NCc4nnc(-c5ccncn5)n4C)c3)ccc2O1` (stereo not drawn) [drawing 401], the values for the IC50 (on GRK2 [2]; in test [3]) were 22 nM and 3370 nM, respectively.

For `Cn1ccnc1C(NC(=O)c1cccc(NCc2nnc(-c3ccncc3)[nH]2)c1)C1CC1` (stereo not drawn) [drawing 485], the IC50 at GRK2 [2] came out at 10 nM; in test [3], 5510 nM.
